A short description of this experiment: SOD mimetic activity / radical scavenging assay (INT method). The class given is biochemical. As to conditions: for Activity at c1 (%), inhibition of radical transfer to INT: c1 = 0.572 mM. As for the experimental part: The radical scavenging ability with respect to the SOD mimetic activity of the prepared complexes was determined by the INT method. This method is based on a competitive reaction with the superoxide anion radical from KO2 between the measured compound (complex) and 2-(4-Iodophenyl)-3-(4-nitrophenyl)-5-phenyl-2H-tetrazolium chloride (INT). INT reacts with the single electron of O2^− and produces blue-green formazane detected as light absorption at 500 nm. Complexes with good antiradical activity also react with O2^−, and as a result of this, less formazane is formed.
The first type of antiradical activity measurements involved the determination of inhibition percent values of electron transfer on INT at specific concentrations (Table 9). Two concentrations were selected to achieve good solubility of the complexes (4 and 1 mM for 4a and 4c, 2 and 1 mM for 4b). The complex 4b dissolved readily at a concentration of 4 mM, but the mixture was very dark, making measurements at 500 nm difficult. Therefore, a less concentrated initial solution was used (2 mM) as the higher concentration. In total, 0.5 mL of the initial solutions was used to prepare sample solutions that also contained INT and KO2 solutions and DMSO with an overall volume of 3.5 mL. The resulting concentrations were c1 = 0.572 mM, c1* = 0.286 mM and c2 = 0.143 mM, respectively. Complexes 4a and 4c once again provided high percentages at c1 (approximately 96–99%) but the activity dropped below 24% at c2, while complex 4b maintained mediocre activity at both concentrations. It seems that the concentration increase had only a small effect on the activity of 4b; something similar was also observed in the DNA cleavage study for complex 4b. The complexes were compared with the model compound cystamine, which was used as a standard for superoxide antiradical scavenging due to the presence of a free […] group, which is also present in glutathione.
To improve the comparability of SOD mimetic activity, IC50 concentrations were determined by performing a series of measurements with decreasing concentration. IC50 values were calculated from the trend function equation as the concentration with 50% inhibition of electron transfer on INT (Table 10).
The method is based on the agent 2-(4-Iodophenyl)-3-(4-nitrophenyl)-5-phenyl-2H-tetrazolium chloride (INT), able to scavenge a superoxide radical anion from KO2. The reaction produces a blue-green formazane, which is detected as light absorption at 500 nm. The radical scavengers (measured complexes) compete with INT for radicals and reduce the formation of formazane and light absorption at 500 nm. Antiradical activity was measured on a Synergy HT BioTek spectrophotometer. DMSO was used as the solvent for the complex and KO2 (saturated solution). The INT initial solution (4 M) was prepared in a sodium tetraborate buffer solution with pH adjusted to 7.1 with HCl.
For each measurement, an initial solution of the sample (0.5 mL) of a specific concentration (4–0.1 mM) was prepared in DMSO. Due to the addition of INT (0.5 mL) and KO2 (0.5 mL) solutions and additional DMSO (2 mL), the concentrations of the measured complexes decreased seven times (3.5 mL of total mixture). Each result was the average value of three parallel measurements expressed with a standard deviation (more information in the Supplementary Materials). For the determination of SOD-IC50, several measurements with decreasing sample concentration were performed. […] A linear trend function of the percentage of inhibition and negative logarithm of concentration was used to calculate the SOD-IC50 value as the concentration with 50% inhibition of INT–formazane formation. […]
Green: 5c 5 mM (S. cerevisiae 1x10^9 cells /ml + 0.5 ml 0.9% NaCl + 0.5 ml 5c + 0.1 ml Resazurin OX) measured in time
S6. SOD Mimetic A ctivity A ssay
For each measurement, an initial solution of the sample of a specific concentration was prepared […]

[1] abbreviates: 50% inhibition of electron transfer on INT, read-out: SOD-IC50.

Each structure is given as a SMILES string. Like-named read-outs stand apart in the source and are kept apart here.

For the compound `COc1ccc(CN=Cc2ccccc2[O-])cc1.COc1ccc(CN=Cc2ccccc2[O-])cc1.[Cl-].[Cl-].[Cu+2].[Cu+2]` [Complex 4c, [Cu2 (Sal-4-MeOBn)2 Cl2]], the “Activity at c1 (%), inhibition of radical transfer to INT” value turned out to be 98.9 ± 0.5%. Also, the IC50 under setting [1] came out at 189 ± 11 µM.
The like results for `COc1ccccc1CN=Cc1ccccc1[O-].COc1ccccc1CN=Cc1ccccc1[O-].[Cl-].[Cl-].[Cu+2].[Cu+2]` [Complex 4a, [Cu2 (Sal-2-MeOBn)2 Cl2]] were, in that order, 95.8 ± 2.2% and 242 ± 1 µM.
For `COc1cccc(CN=Cc2ccccc2[O][Cu][O]c2ccccc2C=NCc2cccc(OC)c2)c1` [Complex 4b, [Cu (Sal-3-MeOBn)2]], the IC50 under setting [1] came to 1090 ± 56 µM and the IC50 (INT method, read-out: concentration of 50% inhibition (SOD-IC50), given as range) is greater than 1000 µM. Further, the “Activity at c1* (%), inhibition of radical transfer to INT” value (c1* = 0.286 mM (reduced for complex 4b)) is given as 40.1 ± 1.9 * %. In addition, the “Activity at c2 (%), inhibition of radical transfer to INT” value (c2 = 0.143 mM) was 35.8 ± 1.3%.

The values are drawn from article PMC12430429, “Synthesis, Structure, DNA/BSA Binding, DNA Cleaving, Cytotoxic and SOD Mimetic Activities of Copper(II) Complexes Derived from Methoxybenzylamine Schiff Base Ligands” (Molecules, 2025).
